Assay results published in patent US10155777B2, “Trans-cycloheptenes and hetero-trans-cycloheptenes for bioorthogonal coupling” (UNIVERSITY OF DELAWARE, priority 2015, dated 2018).

Experiment: Rate of tetrazine ligation, by restoring of fluorescence, stopped-flow spectrophotometer
Details: 9:1 H2O:MeOH at 25° C., low concentration
Source text: The rate of the reaction between (E)-Si-(4-hydroxybutyl)-Si-methyl-5-silacycloheptene and tetramethylrhodamine-conjugated dipyridyl tetrazine was studied. The results are shown in Scheme 2. With a rate constant that exceeds 10^7 M^−1s^−1 (Scheme 2), (E)-Si-(4-hydroxybutyl)-Si-methyl-5-silacycloheptene is the most reactive dienophile to date for bioorthogonal applications. As the reaction was too rapid for reliable rate determination by UV-vis kinetics, the inventors determined the rate of the reaction by the restoring of fluorescence after tetrazine ligation at low concentration in 9:1 H2O:MeOH at 25° C. by using an SX 18MV-R stopped-flow spectrophotometer (Applied Photophysics Ltd.). This is depicted in Scheme 4.

C[Si]1(CCCCO)CCC=CCC1 [(E)-Si-(4-hydroxybutyl)-Si-methyl-5-silacycloheptene]
rate constant of reaction with tetrazine: exceeds 10^7 M^−1s^−1
